The target in experiment [1] is T1, ATM (Homo sapiens, UniProt Q13315).
T1 construct: detecting phosphorylation of Chk2 in a human non-small cell lung cancer cell line NCI-H460 (ATCC company); host or cells: NCI-H460 human non-small cell lung cancer cells
The experiment can be described thus: ATM inhibition test (phosphorylation of Chk2 generated by ionizing radiation, AlphaScreen SureFire). In kind it is cell-based. Conditions: phosphorylated Chk2 in NCI-H460 cells, ionizing radiation 8Gy, 1 hour after test compound treatment; read-out: ATM inhibitory activity. In a few lines:
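In NCI-H460 cells, radiation-triggered Chk2 phosphorylation (8Gy, 1 h) is detected by AlphaScreen SureFire following 1 h compound exposure.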
A general note: Bead proximity is the source of the signal in Alpha formats.

In experiment [2] the test system is human non-small cell lung cancer cell line NCI-H460. The experiment can be described thus: Cell proliferation inhibition test by sensitivity-enhancing to ionizing radiation (Cell Titer Glo). The settings on record: Homo sapiens, NCI-H460, 120 h, concentration in which SER became 2; NCI-H460 cells, ionizing radiation 2 Gy, cultured 120 hour. It counts as cell-based. In a few lines:
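Radiosensitisation measured as SER, a ratio of Cell Titer Glo luminescence in irradiated vs unirradiated plates relative to DMSO; SER2, the concentration yielding SER 2, came from sigmoidal regression. Compound (0.1% DMSO) was given 24 h post-seeding, 2 Gy applied 30 min later, then 120 hour culture at 37° C.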
For orientation: ATP-based viability assays read luminescence as a measure of living cells.

A value given as a limit tells only on which side of the number the result lay.

Drawing on patent US9586951B2 (FUJIFILM Corporation, priority 2013, dated 2017), this text covers IC50 and SER2 (concentration for 12 compounds.

T1 sequence (Q13315 whole entry): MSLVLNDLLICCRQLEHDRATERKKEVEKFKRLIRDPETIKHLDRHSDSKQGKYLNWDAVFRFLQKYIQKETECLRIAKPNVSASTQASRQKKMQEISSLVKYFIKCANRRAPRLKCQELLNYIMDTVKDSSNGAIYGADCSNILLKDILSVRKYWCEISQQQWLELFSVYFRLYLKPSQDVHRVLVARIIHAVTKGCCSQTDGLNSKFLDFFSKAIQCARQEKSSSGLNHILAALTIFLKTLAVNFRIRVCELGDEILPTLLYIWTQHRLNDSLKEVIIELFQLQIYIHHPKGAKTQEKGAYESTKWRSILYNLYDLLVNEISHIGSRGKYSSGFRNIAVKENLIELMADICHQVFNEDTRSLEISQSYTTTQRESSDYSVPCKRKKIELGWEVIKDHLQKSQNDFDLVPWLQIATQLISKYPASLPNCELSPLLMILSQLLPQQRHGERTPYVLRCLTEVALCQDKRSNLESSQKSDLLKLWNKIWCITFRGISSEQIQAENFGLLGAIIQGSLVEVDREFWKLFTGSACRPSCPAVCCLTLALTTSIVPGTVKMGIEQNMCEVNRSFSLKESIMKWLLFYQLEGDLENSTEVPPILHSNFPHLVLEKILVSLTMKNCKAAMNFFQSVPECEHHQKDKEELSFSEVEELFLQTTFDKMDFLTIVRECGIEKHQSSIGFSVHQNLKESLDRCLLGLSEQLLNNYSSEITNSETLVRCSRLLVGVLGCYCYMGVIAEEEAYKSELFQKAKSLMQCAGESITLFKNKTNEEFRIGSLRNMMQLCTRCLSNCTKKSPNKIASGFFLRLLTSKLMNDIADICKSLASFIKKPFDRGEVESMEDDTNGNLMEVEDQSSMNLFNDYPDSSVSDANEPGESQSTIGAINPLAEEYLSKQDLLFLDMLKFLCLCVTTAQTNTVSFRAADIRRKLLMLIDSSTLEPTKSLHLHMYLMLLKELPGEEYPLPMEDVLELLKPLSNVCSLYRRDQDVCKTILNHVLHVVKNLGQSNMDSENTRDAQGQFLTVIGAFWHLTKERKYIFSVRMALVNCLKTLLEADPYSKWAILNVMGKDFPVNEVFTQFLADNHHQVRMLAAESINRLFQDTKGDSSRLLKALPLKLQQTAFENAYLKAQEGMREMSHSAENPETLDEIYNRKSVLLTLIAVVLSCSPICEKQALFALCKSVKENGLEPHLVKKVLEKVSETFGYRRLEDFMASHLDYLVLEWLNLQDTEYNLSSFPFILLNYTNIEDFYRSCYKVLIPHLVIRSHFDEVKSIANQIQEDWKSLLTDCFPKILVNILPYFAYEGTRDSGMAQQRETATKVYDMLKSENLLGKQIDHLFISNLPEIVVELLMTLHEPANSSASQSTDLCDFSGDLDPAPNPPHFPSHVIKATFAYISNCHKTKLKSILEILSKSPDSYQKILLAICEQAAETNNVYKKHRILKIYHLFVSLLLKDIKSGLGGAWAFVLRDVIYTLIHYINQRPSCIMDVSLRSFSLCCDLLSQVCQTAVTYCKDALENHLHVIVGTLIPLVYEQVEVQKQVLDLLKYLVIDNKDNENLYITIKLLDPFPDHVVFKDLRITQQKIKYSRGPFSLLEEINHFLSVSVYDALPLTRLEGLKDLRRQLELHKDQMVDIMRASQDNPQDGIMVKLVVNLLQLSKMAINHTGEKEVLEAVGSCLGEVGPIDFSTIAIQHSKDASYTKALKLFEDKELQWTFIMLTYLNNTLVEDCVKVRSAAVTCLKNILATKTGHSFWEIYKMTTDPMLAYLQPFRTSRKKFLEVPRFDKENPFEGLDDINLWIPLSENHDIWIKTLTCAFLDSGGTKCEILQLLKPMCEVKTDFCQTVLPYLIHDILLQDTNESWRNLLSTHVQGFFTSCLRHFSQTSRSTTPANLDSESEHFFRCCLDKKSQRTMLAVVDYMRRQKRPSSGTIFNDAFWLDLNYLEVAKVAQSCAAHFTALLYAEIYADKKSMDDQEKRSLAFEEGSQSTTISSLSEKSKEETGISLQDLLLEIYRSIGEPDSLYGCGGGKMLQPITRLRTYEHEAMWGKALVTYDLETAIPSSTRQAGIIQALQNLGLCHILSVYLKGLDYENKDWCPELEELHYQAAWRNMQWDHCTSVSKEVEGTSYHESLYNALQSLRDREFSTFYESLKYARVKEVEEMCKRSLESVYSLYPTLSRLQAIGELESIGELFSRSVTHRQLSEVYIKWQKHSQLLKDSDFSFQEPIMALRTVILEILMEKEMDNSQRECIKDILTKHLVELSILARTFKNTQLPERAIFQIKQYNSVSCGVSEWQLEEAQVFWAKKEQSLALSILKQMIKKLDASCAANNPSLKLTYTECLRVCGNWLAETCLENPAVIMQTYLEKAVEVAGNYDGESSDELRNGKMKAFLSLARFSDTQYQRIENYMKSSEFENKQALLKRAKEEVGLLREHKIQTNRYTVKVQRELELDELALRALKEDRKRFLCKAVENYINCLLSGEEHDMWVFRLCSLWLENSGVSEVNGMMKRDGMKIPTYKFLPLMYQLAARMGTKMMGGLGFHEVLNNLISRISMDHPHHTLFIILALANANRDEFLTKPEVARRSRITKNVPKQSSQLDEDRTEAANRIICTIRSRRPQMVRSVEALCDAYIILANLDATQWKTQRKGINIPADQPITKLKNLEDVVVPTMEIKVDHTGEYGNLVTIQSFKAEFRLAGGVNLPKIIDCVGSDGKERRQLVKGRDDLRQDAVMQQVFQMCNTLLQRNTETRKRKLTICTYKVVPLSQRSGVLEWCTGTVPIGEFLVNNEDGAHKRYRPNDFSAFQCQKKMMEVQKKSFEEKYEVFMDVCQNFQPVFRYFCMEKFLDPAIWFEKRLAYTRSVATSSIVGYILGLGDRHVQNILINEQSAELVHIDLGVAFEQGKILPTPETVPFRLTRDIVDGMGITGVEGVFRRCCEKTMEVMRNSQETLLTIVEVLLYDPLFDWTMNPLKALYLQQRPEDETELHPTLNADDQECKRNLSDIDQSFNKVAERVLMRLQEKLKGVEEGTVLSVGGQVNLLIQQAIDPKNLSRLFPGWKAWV

`COC[C@H](CN1CCOC(C)(C)C1)Nc1ccc2c(c1)Sc1cccc(-c3cc(N4CCOCC4)cc(=O)[nH]3)c1S2` [Example 1-46-9, (S)-6-(7-((1-(2,2-Dimethylmorpholino)-3-methoxypropan-2-yl)amino)thianthren-1-yl)-4-morpholino pyridin-2(1H)-one]: in experiment [1], the IC50 was less than 0.1 µM. Further, the SER2 (concentration at which the radiation sensitivity-enhancement ratio reaches 2) in experiment [2] lay within 100 to 500 nM.
On to `O=c1cc(N2CCOCC2)cc(-c2cccc3c2Oc2ccc(NCc4ccnc(Br)c4)cc2C3)[nH]1` [Example 2-2-53, 6-(7-(((2-Bromopyridin-4-yl)methyl)amino)-9H-xanthen-4-yl)-4-morpholino pyridin-2 (1H)-one], for which the IC50 in experiment [1] is less than 0.1 µM. In addition, the SER2 (concentration at which the radiation sensitivity-enhancement ratio reaches 2) in experiment [2] lay in the range of 500 to 2000 nM.
On the same counts, the results for `Cc1ccc(CNc2ccc3c(c2)Sc2cccc(-c4cc(N5CCOCC5)cc(=O)[nH]4)c2S3)cn1` [Example 1-12-15, 6-(7-(((6-Methylpyridin-3-yl)methyl)amino)thianthren-1-yl)-4-morpholino pyridin-2 (1H)-one] are less than 0.1 µM and 100 to 500 nM.
`CC(CN1CCN(C)CC1)Nc1ccc2c(c1)Sc1cccc(-c3cc(N4CCOCC4)cc(=O)[nH]3)c1S2` (racemic) [Example 1-13-3-1, 6-(7-((1-(4-Methylpiperazin-1-yl)propan-2-yl)amino)thianthren-1-yl)-4-morpholinopyridin-2(1H)-one]: the IC50 in experiment [1] was less than 0.1 µM. In addition, the SER2 (concentration at which the radiation sensitivity-enhancement ratio reaches 2) in experiment [2] was in the range of 100 to 500 nM.
Take `COc1ncccc1CN1CCC(Nc2ccc3c(c2)Cc2cccc(-c4cc(N5CCOCC5)cc(=O)[nH]4)c2O3)CC1` [Example 2-28-5, 6-(7-((1-((2-Methoxypyridin-3-yl)methyl)piperidin-4-yl)amino)-9H-xanthen-4-yl)-4-morpholino pyridin-2(1H)-one]: the IC50 in experiment [1] was less than 0.1 µM. Besides, the SER2 (concentration at which the radiation sensitivity-enhancement ratio reaches 2) in experiment [2] lay in the range of 500 to 2000 nM.
For the compound `CN(C)c1cnc(CNc2ccc3c(c2)Cc2cccc(-c4cc(N5CCOCC5)cc(=O)[nH]4)c2O3)cn1` [Example 2-2-37], in experiment [1], the IC50 was less than 0.1 µM. Further, the SER2 (concentration at which the radiation sensitivity-enhancement ratio reaches 2) in experiment [2] was in the range of 500 to 2000 nM.
With `O=c1cc(N2CCOCC2)cc(-c2cccc3c2Oc2ccc(NCc4cncc(C(F)(F)F)c4)cc2C3)[nH]1` [Example 2-13-4, 4-Morpholino-6-(7-(((5-(trifluoromethyl)pyridin-3-yl)methyl)amino)-9H-xanthen-4-yl)pyridin-2(1H)-one], the IC50 in experiment [1] is less than 0.1 µM. Further, in experiment [2], the SER2 (concentration at which the radiation sensitivity-enhancement ratio reaches 2) fell in the range of 100 to 500 nM.
In the case of `O=c1cc(N2CCOCC2)cc(-c2cccc3c2Oc2ccc(NCc4cncc(C5CC5)c4)cc2C3)[nH]1` [Example 2-2-50, 6-(7-(((5-Cyclopropylpyridin-3-yl)methyl)amino)-9H-xanthen-4-yl)-4-morpholino pyridin-2 (1H)-one], in experiment [1], the IC50 was less than 0.1 µM. Also, in experiment [2], the SER2 (concentration at which the radiation sensitivity-enhancement ratio reaches 2) lay within 100 to 500 nM.
`Cc1cnc(C(CCN2CCOCC2)Nc2ccc3c(c2)Sc2cccc(-c4cc(N5CCOCC5)cc(=O)[nH]4)c2S3)cn1` (stereo not drawn) [Example 1-50-1, 6-(7-((1-(5-methylpyrazin-2-yl)-3-morpholinopropyl)amino)thianthren-1-yl)-4-morpholinopyridin-2(1H)-one]: the IC50 in experiment [1] is less than 0.1 µM. Also, the SER2 (concentration at which the radiation sensitivity-enhancement ratio reaches 2) in experiment [2] is less than 100 nM.
Regarding `Cc1cc(C(C)Nc2ccc3c(c2)Sc2cccc(-c4cc(N5CCOCC5)cc(=O)[nH]4)c2S3)ncn1` (stereo not drawn) [Example 1-12-75, 6-(7-((1-(6-Methylpyrimidin-4-yl)ethyl)amino)thianthren-1-yl)-4-morpholino pyridin-2 (1H)-one], the IC50 in experiment [1] was less than 0.1 µM. The SER2 (concentration at which the radiation sensitivity-enhancement ratio reaches 2) in experiment [2] was in the range of 100 to 500 nM.
On the same counts, the results for `Cc1ccc(C2(Nc3ccc4c(c3)Sc3cccc(-c5cc(N6CCOCC6)cc(=O)[nH]5)c3S4)CC2)nc1` [Example 1-50-5, 6-(7-((1-(5-Methylpyridin-2-yl)cyclopropyl)amino)thianthren-1-yl)-4-morpholino pyridin-2(1H)-one] are less than 0.1 µM and 100 to 500 nM.
On the same counts, the results for `O=c1cc(N2CCOCC2)cc(-c2cccc3c2Oc2ccc(NCc4cncc(N5CCCC5)c4)cc2S3)[nH]1` [Example 4-4-7, 4-Mmorpholino-6-(8-(((5-(pyrrolidin-1-yl)pyridin-3-yl)methyl)amino)phenoxathiin-4-yl)pyridin-2(1H)-one] are less than 0.1 µM and 100 to 500 nM.
